Experimental data taken from publication PMC9583845, “Characterization of the chicken melanocortin 5 receptor and its potential role in regulating hepatic glucolipid metabolism” (Frontiers in Physiology, 2022).

Key:
[1] = test system: chicken MC4R; design: method as in Zhang et al., 2017; Thomas et al., 2018; settings: ref Zhang et al., 2017; Thomas et al., 2018; cited from earlier work
[2] = molecular target: chicken MC5R + MRAP1 (Gallus gallus, UniProt O73671); assay: pGL3-CRE-luciferase reporter assay, CHO cells co-expressing MC5R and cMRAP1; assay type: cell-based; settings: for effect of MRAP1 co-expression on sensitivity of MC5R: vs MC5R expressed alone
Experimental: (§1) The expression plasmids encoding MC5R, MRAP1 and MRAP2 were established by cloning their entire open reading frame (ORF) into the pcDNA3.1 (+) expression vector (Invitrogen).
(§2) The cells were then transfected with a mixture containing 700 ng pGL3-CRE-Luciferase reporter construct, 200 ng of receptor expression plasmid (or empty pcDNA3.1 vector as a negative control), 20 ng of pRL-TK construct (containing a Renilla luciferase gene, used as an internal control), and 2 μl jetPRIME transfection reagent (Polyplus Transfection, Illkirch, France) in 200 μL buffer. […] After removal of the medium from the 96-well plate, the cells were treated with 100 μl ligand-containing medium (or ligand-free medium) for 6 h. Finally, CHO cells were lysed with 1 × passive lysis buffer for luciferase assay (Promega) and the luciferase activity of the cell lysate was measured by a Multimode Microplate Reader (TriStar LB941, EG&G Berthold, Germany) according to the manufacturer’s instruction.
(§3) All statistical analysis was performed using GraphPad Prism 9 (Graph Pad Software Inc., San Diego, CA). The dose-response curves were constructed using nonlinear regression models. Student’s test was used to compare two groups, for more than two groups one-way ANOVA was performed followed by Dunnett’s test. To validate our results, all in-vitro experiments were repeated three times, and representative data are reported.

[3] = test system: primary chicken hepatocytes; assay: Lipid quantification by Oil Red O staining, primary cultured chicken hepatocytes; assay type: cell-based; settings: 24 h; OD at 540 nm of isopropanol extract; N = 6; Figures 7C–D
Experimental: (§4) To evaluate the effect of ACTH1-39 on chicken liver, the chicken hepatocytes were prepared and maintained as a monolayer culture. Briefly, one-month-old male chicken hepatocytes were isolated by perfusion of a liver with Ca^2+-free KRB buffer to remove blood cells, and being digested with 0.25% collagenase-I for 10 min. Hepatocytes were obtained following filtering and washing using M199 medium. Then the hepatocytes were plated in a Corning CellBIND 48-well microplate (Corning, NY, cat. no.3338) with M199 medium containing 100 U/ml penicillin and […] streptomycin (Gibco), 5 μg/ml bovine insulin (Sigma), and 5% FBS at 37°C in a 5% CO2 atmosphere. To adhere to the wall, the cells were incubated on the 48-well plate for 4 h.
For lipid quantification by Oil Red O staining, after treatment with ACTH1-39 for 24 h, primary cultured chicken hepatocytes were washed with PBS and then fixed with 4% paraformaldehyde for 30 min. After PBS washing, the Oil Red O working solution was added to stain for 30 min. The stained lipids were then visualized by light microscopy after washing in PBS. To quantify the lipid content, the Oil Red O stained in the cells was extracted with isopropanol by measuring the OD value at 540 nm.

[4] = test system: ACACA mRNA, primary chicken hepatocytes; assay: ACACA mRNA in primary chicken hepatocytes, RT-qPCR; assay type: cell-based; settings: 0.1–100 nM, 6 h, N = 4, Figure 8G, listed as not decreased
Experimental: as §4
(§5) For quantitative real-time PCR, primary cultured chicken hepatocytes were treated with various concentrations of ACTH1-39 (or other composition) at 37°C for 6 h. The relative amount of mRNA was calculated using the comparative Ct method. Chicken β-actin gene was used as the reference gene. Amplification of specific transcripts was confirmed by analyzing the melting curve profile performed at the end of each run and by determining the size of the PCR products using agarose electrophoresis and ethidium bromide staining.

[5] = test system: ELOVL6 mRNA, primary chicken hepatocytes; assay: ELOVL6 mRNA in primary chicken hepatocytes, RT-qPCR; assay type: cell-based; settings: 6 h, N = 4, Figures 8A-C
Experimental: as §4, §5

[6] = molecular target: chicken MC5R (Gallus gallus, UniProt O73671); assay: pGL3-CRE-luciferase reporter assay, CHO cells expressing chicken MC5R; assay type: cell-based; settings: for ability to activate / sensitivity of cMC5R (in words, ranking): CHO cells expressing cMC5R
Description: All chemicals were purchased from Sigma-Aldrich (St. Louis, MO, United States) and the restriction enzymes were obtained from TaKaRa (Dalian, China). […] All primers used in this study were synthesized by Beijing Genome Institute (BGI, China) and listed in Supplementary Table 1.
as §1, §2, §3

[7] = test system: THRSPA mRNA, primary chicken hepatocytes; assay: THRSPA mRNA in primary chicken hepatocytes, RT-qPCR; assay type: cell-based; settings: 6 h, N = 4, Figures 8D-F
Experimental: as §4, §5

Sequence of chicken MC5R + MRAP1 (O73671 1-325): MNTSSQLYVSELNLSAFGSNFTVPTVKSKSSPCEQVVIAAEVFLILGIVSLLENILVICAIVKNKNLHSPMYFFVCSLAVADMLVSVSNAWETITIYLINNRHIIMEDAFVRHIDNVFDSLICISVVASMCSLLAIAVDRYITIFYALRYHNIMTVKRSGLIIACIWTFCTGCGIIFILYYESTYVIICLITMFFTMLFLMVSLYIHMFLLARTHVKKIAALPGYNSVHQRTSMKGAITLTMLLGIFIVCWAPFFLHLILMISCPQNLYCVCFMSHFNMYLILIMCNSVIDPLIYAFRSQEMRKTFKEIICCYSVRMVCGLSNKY
Sequence of chicken MC5R (O73671 1-325): as above

- EC50 ([2]; Table 1 / Figure 3, co-expressed with cMRAP1, 6 h, pGL3-CRE-luciferase, mean ± SEM of at least three independent experiments (figure: four replicates)): 2.12 ± 0.37 nM
- ability to activate / sensitivity of cMC5R (in words, ranking) [6]: ACTH1-39 ≈ α-MSH > β-MSH > γ-MSH
- ability to activate / sensitivity of cMC5R (in words, ranking) ([6]; listed as ACTH): highest potency to activate cMC5R
- EC50 ([6]; Table 1 / Figure 3, CHO cells, MC5R alone, 6 h, mean ± SEM of at least three independent experiments (figure: four replicates), read-out: EC50, MC5R expressed alone): 5.91 ± 1.18 nM
Substance: H-SYSMEHFRWGKPVGRKRRPIKVYPNGVDEESAESYPMEF-OH [ACTH1-39]
- activation of chicken MC4R [1]: activated by both α-MSH and ACTH
- effect of MRAP1 co-expression on sensitivity of MC5R [2]: did not affect the sensitivity of cMC5R to ACTH1-39
- effect of MRAP1 co-expression on sensitivity of MC5R ([2]; listed as ACTH): no effect on the sensitivity of chicken MC5R for ACTH
- lipid contents (Oil Red O staining) [3]: lipid contents were lower in the ACTH-treat group in a dose-dependent manner
- ACACA mRNA expression [4]: instead of ACACA, FASN and SCD
- ELOVL6 mRNA expression [5]: dose-dependently decreased
- THRSPA mRNA expression [7]: dose-dependently decreased
